Legend:
[1] = biological target: Amyloid-beta precursor protein (Homo sapiens, UniProt P05067); assay: Inhibition of amyloid beta (unknown origin) aggregation by Thiazin-red R displacement fluorescence assay
[2] = biological target: Microtubule-associated protein tau (Homo sapiens, UniProt P10636); assay: Inhibition of recombinant human microtubule associated protein tau aggregation by Thiazin-red R displacement fluorescence assay
Chain of Microtubule-associated protein tau (P10636 whole entry): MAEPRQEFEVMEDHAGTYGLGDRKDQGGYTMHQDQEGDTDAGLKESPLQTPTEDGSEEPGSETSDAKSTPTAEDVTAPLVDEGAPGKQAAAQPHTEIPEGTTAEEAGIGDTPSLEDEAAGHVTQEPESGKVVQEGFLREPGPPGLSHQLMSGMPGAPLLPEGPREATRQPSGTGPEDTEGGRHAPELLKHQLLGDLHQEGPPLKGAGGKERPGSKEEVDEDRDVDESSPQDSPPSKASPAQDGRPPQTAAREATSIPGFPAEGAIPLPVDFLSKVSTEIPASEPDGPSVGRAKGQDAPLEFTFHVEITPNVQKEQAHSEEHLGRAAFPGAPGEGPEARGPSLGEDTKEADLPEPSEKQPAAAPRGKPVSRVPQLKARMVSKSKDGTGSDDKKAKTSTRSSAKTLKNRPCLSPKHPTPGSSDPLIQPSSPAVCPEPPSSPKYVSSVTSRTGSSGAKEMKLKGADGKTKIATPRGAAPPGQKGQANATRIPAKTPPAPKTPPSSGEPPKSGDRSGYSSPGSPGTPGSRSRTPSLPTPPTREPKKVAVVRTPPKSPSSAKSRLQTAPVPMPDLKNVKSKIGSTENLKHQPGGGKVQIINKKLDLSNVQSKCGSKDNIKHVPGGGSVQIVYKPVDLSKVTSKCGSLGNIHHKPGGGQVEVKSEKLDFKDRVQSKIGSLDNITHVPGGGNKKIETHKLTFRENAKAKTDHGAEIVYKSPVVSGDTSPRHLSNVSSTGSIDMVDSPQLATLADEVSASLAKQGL

Chain of Amyloid-beta precursor protein (P05067 whole entry): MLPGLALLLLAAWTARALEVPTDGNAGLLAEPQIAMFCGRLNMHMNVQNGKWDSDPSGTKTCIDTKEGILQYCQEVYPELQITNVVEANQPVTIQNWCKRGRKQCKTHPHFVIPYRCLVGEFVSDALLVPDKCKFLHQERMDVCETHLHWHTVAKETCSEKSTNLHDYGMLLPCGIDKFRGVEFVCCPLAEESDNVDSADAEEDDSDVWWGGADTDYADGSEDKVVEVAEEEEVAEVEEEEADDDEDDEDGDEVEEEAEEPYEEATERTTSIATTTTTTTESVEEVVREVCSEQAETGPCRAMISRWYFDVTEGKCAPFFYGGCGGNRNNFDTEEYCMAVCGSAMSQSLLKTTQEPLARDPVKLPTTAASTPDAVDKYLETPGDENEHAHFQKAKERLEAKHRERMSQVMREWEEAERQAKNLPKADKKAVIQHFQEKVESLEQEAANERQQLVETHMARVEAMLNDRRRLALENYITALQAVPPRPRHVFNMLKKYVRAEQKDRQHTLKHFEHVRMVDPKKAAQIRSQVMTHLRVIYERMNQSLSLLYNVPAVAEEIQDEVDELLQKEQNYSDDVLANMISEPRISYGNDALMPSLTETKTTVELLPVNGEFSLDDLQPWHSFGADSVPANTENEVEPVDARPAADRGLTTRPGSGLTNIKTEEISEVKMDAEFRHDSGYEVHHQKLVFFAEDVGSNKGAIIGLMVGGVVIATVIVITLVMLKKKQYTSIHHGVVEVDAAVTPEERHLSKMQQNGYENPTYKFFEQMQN

| SMILES | IC50 [1] [nM] | IC50 [2] [nM] |
| --- | --- | --- |
| COc1cc(/C=c2\sc3nc(-c4cccc(OC(F)(F)F)c4)cn3c2=O)cc(F)c1O | > 10000 | – |
| COc1cc(/C=c2\sc3nc(-c4ccncc4C)cn3c2=O)cc(OC)c1O | 32 | 8 |
| COc1cc(/C=c2\sc3nc(-c4ccncc4C)cn3c2=O)ccc1O | > 10000 | 79 |
